Where a SMILES comes first, the peptide text is derived from it. The star is where a group is joined. Cbz = O=C(OCc1ccccc1)*
Legend:
Format in all cases: cell-based
TSPYL5 = assay: Ubiquitination assay of TSPYL5
Protocol: H460 cells were transfected with pcDNA3.1/TSPYL5 (wild-type) and pcDNA3.1/TSPYL5-120A constructed in Example 1. 48 hours later, 10 μM MK2206 was treated to the cells for 1 hour and then the cells were recovered. A protease inhibitor was added to a cell lysis solution (2% SDS, 150 mM NaCl, 10 mM Tris-HCl, pH 8.0), followed by mixing. 100 μl of the solution was added to the cells. The cells were lysed by using a sonicator. Centrifugation was performed at 13000 rpm. The supernatant was obtained, which was diluted in a diluting solution (0.01% SDS, 1.1% Triton X-100, 1.2 mM EDTA, 16.7 mM Tris-HCl (pH8.1), 167 mM NaCl) at 1/10, followed by reaction at 4° C. for 30 minutes. TSPYL5 or ubiquitin specific antibody was added thereto, followed by reaction for overnight to induce protein binding. Protein A/G agarose beads were added thereto, followed by reaction for 4 hours. The protein was washed with washing buffer (10 mM Tris-HCl pH 8.0, 1 M NaCl, 1 mM EDTA, 1% NP40) twice. The protein was mixed with loading buffer and heated at 95° C. Samples were loaded, followed by reaction with TSPYL5 or ubiquitin specific antibody to confirm the protein expression.

TSPYL5 protein [1] = assay: TSPYL5 expression after inhibition of AKT phosphorylation (PCR and Western blotting); conditions: A549 cells
Protocol: In addition, 20 μM of MK2206 (Santa Cruze Biotechnology), the AKT (serine/threonine protein kinase) inhibitor, was treated thereto, followed by investigation of the inhibition of AKT phosphorylation and the inhibition of TSPYL5 expression.
Western blotting was performed as follows in order to investigate the protein expression. Lysis buffer (0.05 M Tris-Cl (pH7.4), 0.15 M NaCl, 0.25% deoxycholic acid, 1% NP-40, 1 mM EDTA, and protease inhibitor cocktail) was added to the target cells, followed by reaction at 4° C. for 30 minutes. The cell lysate was centrifuged at 4° C. to obtain the supernatant. The supernatant was quantified. 40 μg of each protein was loaded on SDS-gel, followed by electrophoresis. The proteins were transferred onto nitrocellulose membrane, followed by blocking with BSA containing buffer at room temperature for 30 minutes. Then, the membrane was reacted with the primary antibody PTEN (1:1000), TSPYL5 (Santa Cruz), ALDH1A1, ALDH1A3 (Abcam), CD44, and β-actin, or GAPDH (CST) for 4 hours. Then, the membrane was reacted with the secondary antibody (1:10000). The nitrocellulose membrane was washed 5 times with PBS, followed by sensitization on the film with the detection solution. […]

TSPYL5 protein [2] = assay: Location of TSPYL5 expression in cells after AKT/PI3K inhibitor (fluorescent microscope); conditions: A549 cells, 10 μM MK2206 or 50 μM LY294002, 4 hours
Protocol: (§1) 1×10^5 A549 cells placed on the culture dish with the cover glass were treated with 10 μM of MK2206 (AKT inhibitor) and 50 μM of LY294002 (PI3K inhibitor) for 4 hours. The cells were fixed in 4% paraformaldehyde solution for 20 minutes. Then, the cover glass was washed with PBS three times and then treated with 0.5% TritonX-100 solution for 5 minutes. The cover glass was washed again with PBS three times. The cells were treated with 1% BSA for 2 hours, followed by reaction with the primary antibody TSPYL5 (Santa Cruz) diluted in PBS buffer at the ratio of 1:100 for 2 hours. Then, the cells were reacted with the secondary antibody Rabbit (Cell Signaling Technology) diluted at the ratio of 1:1000 for 1 hour. The cells were washed with PBS three times, and then the nucleus was stained with DAPI solution for 5 minutes. The location and the amount of TSPYL5 expression were investigated under fluorescent microscope.

A549 cells [3] = assay: Western blotting after AKT/PI3K inhibitor treatment; conditions: 10 μM MK2206 or 50 μM LY294002, Western blotting
Protocol: Western blotting was performed as follows in order to investigate the protein expression. Lysis buffer (0.05 M Tris-Cl (pH7.4), 0.15 M NaCl, 0.25% deoxycholic acid, 1% NP-40, 1 mM EDTA, and protease inhibitor cocktail) was added to the target cells, followed by reaction at 4° C. for 30 minutes. The cell lysate was centrifuged at 4° C. to obtain the supernatant. The supernatant was quantified. 40 μg of each protein was loaded on SDS-gel, followed by electrophoresis. The proteins were transferred onto nitrocellulose membrane, followed by blocking with BSA containing buffer at room temperature for 30 minutes. Then, the membrane was reacted with the primary antibody PTEN (1:1000), TSPYL5 (Santa Cruz), ALDH1A1, ALDH1A3 (Abcam), CD44, and β-actin, or GAPDH (CST) for 4 hours. Then, the membrane was reacted with the secondary antibody (1:10000). The nitrocellulose membrane was washed 5 times with PBS, followed by sensitization on the film with the detection solution.
as §1
Western blotting was also performed by the same manner as described in Experimental Example <1-1>. As a result, when AKT or PI3K inhibitor was treated to the cells, the expressions of TSPYL5, phosphorylated AKT, CD44, ALDH1A3, and ALDH1A1 were reduced.

A549 cells [4] = assay: Cancer cell proliferation (colony-forming ability) after peptide treatment; conditions: 10 μM of each peptide, 8 days, crystal violet staining, compared with DMSO control
Protocol: Particularly, 1×10^3 A549 cells were distributed on a 35 mm plate, which were treated with 10 μM of each peptide. As for the control, DMSO was treated thereto, followed by culture in a 37° C. 5% CO2 incubator for 8 days. The cells were stained with 0.5% crystal violet for 10 minutes. The cells were washed with PBS several times and then cell proliferation was investigated.

A549 cells [5] = assay: Transwell migration assay (cancer cell metastasis) after peptide treatment; conditions: 10 μM peptide, 40 hours, compared with the control
Protocol: (§2) The mixture was loaded in the transwell upper chamber. In the lower chamber, 500 μl of RPMI1640 supplemented with 7% FBS was loaded. Then, the two chambers were combined together. The cells were cultured in a 37° C. 5% CO2 incubator for 40 hours. The upper chamber membrane was wiped with cotton swabs, stained with crystal violet, and then observed under microscope.
(§3) For invasion assay, the transwell upper chamber was coated with 100 μl of matrigel (20 μg/well; BD Biosciences). Then, the rest of the process was the same as described in the migration assay above. The cells stained with crystal violet were eluted with 500 μl of 10% acetic acid. OD600 was measured to calculate the relative migration/invasion value of A549 cells.

A549 cells [6] = assay: Matrigel transwell invasion assay after peptide treatment; conditions: 10 μM peptide, matrigel-coated transwell, compared with the control
Protocol: as §2, §3

A549 cells [7] = assay: Sphere formation after peptide treatment; conditions: 10 μM of each peptide, 10 days, compared with the control
Protocol: To investigate the capacity of TSPYL5 peptide to inhibit the sphere formation, 2×10^4 A549 cells (non-small cell lung cancer cells) were suspended in DMEM (Invitrogen) containing stem cell-permissive medium. 20 ng/ml of EGF, 20 ng/ml of basic fibroblast growth factor (bFGF) and B27 serum-free supplement (Invitrogen) were mixed with DMEM-F12 (Invitrogen). The cells were distributed in the 96 well plate pre-coated with 0.8% agar (one cell/well), to which 10 μM of each peptide was treated, followed by culture. The cells were cultured in a 37° C. 5% CO2 incubator for 10 days. Then, the sphere formation was observed.

TSPYL5 protein [8] = assay: TSPYL5 nuclear expression after SUMOylation inhibition; conditions: A549 cells, 3 uM, 2 hours
Protocol: However, in the cells expressing pcDNA3.1/TSPYL5-120A, the SUMOylation was not observed. To confirm the SUMOylation inhibition, the SUMO1 inhibitor ginkgolic acid (Abcam) was treated to A549 cells at the concentration of 3 uM for 2 hours.

[9] = H460 cells transfected with pcDNA3.1/TSPYL5, 10 μM MK2206, 1 hour

Compound: CC(C)C[C@@H](C=O)NC(=O)[C@H](CC(C)C)NC(=O)[C@H](CC(C)C)NC(=O)OCc1ccccc1 [MG132] (Cbz-Leu-Leu-Leu-aldehyde)
- protein degradation of TSPYL5 (TSPYL5; H460 cells, when the 120th amino acid of TSPYL5 was phosphorylated): suppressed

Compound: NC1(c2ccc(-c3nc4ccn5c(=O)[nH]nc5c4cc3-c3ccccc3)cc2)CCC1 [MK2206]
- AKT phosphorylation (TSPYL5 protein [1]; 20 μM MK2206): suppressed
- expression of TSPYL5 protein (TSPYL5 protein [1]; 20 μM MK2206, time course): inhibited in proportion to the suppression time of AKT phosphorylation
- TSPYL5 expression in the nucleus (TSPYL5 protein [2]): not expressed in the nucleus
- expression of ALDH1A1 (A549 cells [3]): reduced
- expression of ALDH1A3 (A549 cells [3]): reduced
- expression of CD44 (A549 cells [3]): reduced
- expression of TSPYL5 (A549 cells [3]): reduced
- expression of phosphorylated AKT (A549 cells [3]): reduced
- phosphorylation of TSPYL5 (TSPYL5; [9]): inhibited
- ubiquitination of TSPYL5 (TSPYL5; [9]): increased

Compound: SERSAADDVFVGTAG (TS120D) [phosphorylation analogue mutant peptide in which the 120th T was substituted with D]
- cell proliferation (A549 cells [4]): significantly inhibited
- cell proliferation (A549 cells [4]; listed as SEQ. ID. NO: 44): reduced
- metastasis (migration) (A549 cells [5]): reduced
- invasion (A549 cells [6]): reduced
- sphere formation (A549 cells [7]): suppressed
- sphere formation (A549 cells [7]; listed as SEQ. ID. NO: 44): inhibited

Compound: SERSAADTVFVGTAG (TS120T) [15 mer peptide containing the 120th residue threonine of TSPYL5]
- cell proliferation (A549 cells [4]): significantly inhibited
- cell proliferation (A549 cells [4]; listed as SEQ. ID. NO: 43): reduced
- metastasis (migration) (A549 cells [5]): reduced
- invasion (A549 cells [6]): reduced
- sphere formation (A549 cells [7]): suppressed
- sphere formation (A549 cells [7]; listed as SEQ. ID. NO: 43): inhibited

Compound: SERSSADAVFVGTAG (SERSAADAVFVGTAG; TS120A) [mutant peptide in which the 120th T was substituted with A]
- cell proliferation (A549 cells [4]): not changed
- metastasis (migration) (A549 cells [5]): did not make any big difference with the control
- invasion (A549 cells [6]): did not make any big difference with the control
- sphere formation (A549 cells [7]): not much changed

Compound: ginkgolic acid
- TSPYL5 protein expression in the nucleus (TSPYL5 protein [8]): not expressed in the nucleus

From patent US10117903B1, “Method for regulating cancer stem cell growth by inhibiting phosphorylation of 120th threonine residue of TSPYL5 protein, a composition containing the peptide sequence functioning to inhibit the phosphorylation and a use thereof” (Korea Atomic Energy Research Institute, priority 2016, dated 2018)
